According to the NIST ThermoML archive (doi:10.1021/je900691n):

Experiment: xn = mol fraction of the nth substance listed
Conditions: Liquid, Pycnometric method

COC(=O)OC [dimethyl carbonate] + O=C=O
mass density [kg/m3]
Conditions | 332.85 K | 337.45 K
8220 kPa, x1 = 0.0242 | – | 212
8340 kPa, x1 = 0.0242 | – | 217
8440 kPa, x1 = 0.0242 | – | 222
8530 kPa, x1 = 0.0242 | – | 226
8640 kPa, x1 = 0.0242 | – | 231
8730 kPa, x1 = 0.0242 | – | 236
8820 kPa, x1 = 0.0242 | – | 242
8920 kPa, x1 = 0.0242 | – | 247
9030 kPa, x1 = 0.0242 | – | 253
9130 kPa, x1 = 0.0242 | – | 259
9240 kPa, x1 = 0.0242 | – | 266
9350 kPa, x1 = 0.0242 | – | 272
9460 kPa, x1 = 0.0242 | – | 279
9570 kPa, x1 = 0.0242 | – | 287
9690 kPa, x1 = 0.0242 | – | 295
9760 kPa, x1 = 0.1484 | – | 790
9810 kPa, x1 = 0.0242 | – | 304
9820 kPa, x1 = 0.118 | 773 | –
9910 kPa, x1 = 0.0242 | 353 | –
9920 kPa, x1 = 0.1484 | 826 | –
9930 kPa, x1 = 0.0242 | – | 311
9960 kPa, x1 = 0.086 | 682 | –
10010 kPa, x1 = 0.0242 | 362 | –
10030 kPa, x1 = 0.086 | 686 | –
10040 kPa, x1 = 0.118 | 780 | –
10060 kPa, x1 = 0.1484 | – | 795
10090 kPa, x1 = 0.0481 | 484 | –
10110 kPa, x1 = 0.0242 | 371 | –
10180 kPa, x1 = 0.118 | – | 737
10200 kPa, x1 = 0.0242 | 381 | –
10200 kPa, x1 = 0.086 | 695 | –
10250 kPa, x1 = 0.0481 | 506 | –
10290 kPa, x1 = 0.1484 | 832 | –
10300 kPa, x1 = 0.0242 | 391 | –
10350 kPa, x1 = 0.0481 | 517 | –
10350 kPa, x1 = 0.118 | 788 | 743
10380 kPa, x1 = 0.0242 | 399 | –
10380 kPa, x1 = 0.086 | 704 | –
10420 kPa, x1 = 0.0481 | 525 | –
10450 kPa, x1 = 0.0481 | – | 450
10450 kPa, x1 = 0.086 | – | 631
10480 kPa, x1 = 0.086 | – | 634
10490 kPa, x1 = 0.0242 | 410 | –
10520 kPa, x1 = 0.0481 | 538 | –
10530 kPa, x1 = 0.086 | 711 | –
10530 kPa, x1 = 0.1484 | – | 804
10550 kPa, x1 = 0.086 | – | 640
10580 kPa, x1 = 0.0242 | 417 | –
10620 kPa, x1 = 0.118 | – | 751
10630 kPa, x1 = 0.086 | – | 644
10640 kPa, x1 = 0.0481 | 550 | –
10670 kPa, x1 = 0.0481 | – | 470
10720 kPa, x1 = 0.1484 | 839 | –
10740 kPa, x1 = 0.0481 | 560 | –
10740 kPa, x1 = 0.118 | 796 | –
10780 kPa, x1 = 0.0481 | – | 481
10800 kPa, x1 = 0.086 | – | 654
10820 kPa, x1 = 0.1484 | – | 809
10860 kPa, x1 = 0.086 | 724 | –
10890 kPa, x1 = 0.0481 | 574 | 492
10940 kPa, x1 = 0.118 | – | 760
11010 kPa, x1 = 0.0481 | – | 504
11060 kPa, x1 = 0.0481 | 588 | –
11080 kPa, x1 = 0.086 | – | 669
11160 kPa, x1 = 0.0481 | – | 517
11200 kPa, x1 = 0.118 | 805 | –
11230 kPa, x1 = 0.1484 | – | 816
11250 kPa, x1 = 0.1484 | 846 | –
11260 kPa, x1 = 0.0481 | 603 | –
11270 kPa, x1 = 0.086 | 738 | –
11290 kPa, x1 = 0.118 | – | 769
11310 kPa, x1 = 0.0481 | – | 530
11380 kPa, x1 = 0.086 | – | 684
11480 kPa, x1 = 0.0481 | – | 543
11500 kPa, x1 = 0.0481 | 619 | –
11650 kPa, x1 = 0.0481 | – | 558
11700 kPa, x1 = 0.118 | – | 779
11720 kPa, x1 = 0.1484 | – | 823
11730 kPa, x1 = 0.1484 | 851 | –
11740 kPa, x1 = 0.118 | 815 | –
11750 kPa, x1 = 0.086 | 751 | –
11760 kPa, x1 = 0.0481 | 636 | –
11780 kPa, x1 = 0.086 | – | 700
11850 kPa, x1 = 0.0481 | – | 573
11990 kPa, x1 = 0.0481 | 650 | –
12100 kPa, x1 = 0.0481 | – | 589
12160 kPa, x1 = 0.118 | 822 | –
12190 kPa, x1 = 0.118 | – | 789
12240 kPa, x1 = 0.1484 | – | 830
12260 kPa, x1 = 0.1484 | 858 | –
12270 kPa, x1 = 0.086 | 765 | 716
12280 kPa, x1 = 0.0481 | 663 | –
12360 kPa, x1 = 0.0481 | – | 607
12630 kPa, x1 = 0.0481 | 678 | –
12660 kPa, x1 = 0.118 | – | 798
12700 kPa, x1 = 0.118 | 830 | –
12740 kPa, x1 = 0.1484 | – | 838
12750 kPa, x1 = 0.086 | 775 | –
12750 kPa, x1 = 0.1484 | 863 | –
12800 kPa, x1 = 0.086 | – | 732
13170 kPa, x1 = 0.086 | – | 742
13190 kPa, x1 = 0.118 | 837 | –
13220 kPa, x1 = 0.118 | – | 807
13230 kPa, x1 = 0.086 | 784 | –
13240 kPa, x1 = 0.1484 | – | 843
13270 kPa, x1 = 0.1484 | 869 | –
13640 kPa, x1 = 0.118 | – | 814
13700 kPa, x1 = 0.118 | 843 | –
13730 kPa, x1 = 0.086 | – | 755
13730 kPa, x1 = 0.1484 | – | 849
13760 kPa, x1 = 0.086 | 794 | –
13800 kPa, x1 = 0.1484 | 874 | –
14170 kPa, x1 = 0.118 | – | 821
14220 kPa, x1 = 0.086 | – | 766
14230 kPa, x1 = 0.118 | 850 | –
14270 kPa, x1 = 0.1484 | – | 855
14290 kPa, x1 = 0.086 | 803 | –
14520 kPa, x1 = 0.1484 | 881 | –
14710 kPa, x1 = 0.086 | – | 775
14720 kPa, x1 = 0.086 | 810 | –
14730 kPa, x1 = 0.118 | – | 829
14760 kPa, x1 = 0.118 | 856 | –
14780 kPa, x1 = 0.1484 | – | 861
15020 kPa, x1 = 0.1484 | 885 | –
15150 kPa, x1 = 0.086 | – | 783
15280 kPa, x1 = 0.118 | – | 836
15290 kPa, x1 = 0.118 | 861 | –
15330 kPa, x1 = 0.086 | 819 | –
15350 kPa, x1 = 0.1484 | – | 866
15460 kPa, x1 = 0.1484 | 889 | –
15740 kPa, x1 = 0.086 | – | 792
15740 kPa, x1 = 0.118 | 866 | –
15760 kPa, x1 = 0.086 | 825 | –
15770 kPa, x1 = 0.118 | – | 842
15800 kPa, x1 = 0.1484 | – | 870
15940 kPa, x1 = 0.1484 | 893 | –
16200 kPa, x1 = 0.086 | 831 | –
16250 kPa, x1 = 0.086 | – | 801
16370 kPa, x1 = 0.118 | 872 | –
16400 kPa, x1 = 0.118 | – | 849
16600 kPa, x1 = 0.1484 | – | 881
16670 kPa, x1 = 0.1484 | 899 | –
